# Laboratory results reported in patent publication US6610675B1 (priority 1980, dated 2003).
# Marks after values point to notes of the source that are not given here.
# What was measured:
# Format in all cases: in vivo, rat
# [1] = tested on: blank cotton pellet granuloma; assay: Blank cotton pellet granuloma assay (intravenous administration); settings: 3 days
# Procedure: A further test was undertaken to determine the thymolytic activity of a representative species of the invention as compared to betamethasone 17-valerate. In this test, the drugs were administered intravenously to rats, while using a blank cotton pellet granuloma assay. Male Sprague-Dawley rats, each weighing about 185 grams (166-196 grams), were used. Two cotton pellets, each weighing 30 mg and containing no test compounds, were sterilized and implanted sub-cutaneously into the back of each test animal. This day was considered day 0 of implantation. Test compounds suspended in 0.8% polysorbate 80 were administered intravenously once daily for 3 consecutive days beginning with day 1. On day 5, the animals were sacrificed and the two pellets, with their respective granulomas, were removed, dried overnight in an oven at 50° C. and weighed (dry granuloma weight). The thymi and final body weights were also recorded.
# In the foregoing tests, there was determined the deactivation of the representative species of the present soft steroids administered intravenously to rats. […] The test compounds were administered intravenously to rats to check the test compounds also for systemic anti-inflammatory activity as compared to betamethasone 17-valerate. The test compounds were found lower in the inhibition of granulation tissue formation and also in the thymus involution activity than betamethasone 17-valerate. From the results of the tests, it is presumed that the compounds which will not be readily subjected to metabolism (deactivation) have a systemic anti-inflammatory activity, as is the case with betamethasone 17-valerate.
# [2] = tested on: granulation tissue formation caused by implantation of cotton pellets; assay: Granuloma formation test (local cotton pellet granuloma assay); settings: for Body wt. gain / Granulation tissue Dry wt. / Granulation tissue Dry wt. Inhibition / Granulation tissue Wet wt. / Granulation tissue Wet wt. Inhibition / Thymus wt.: Table IV
# Procedure: The test compound was dissolved in acetone and aliquots of varying concentrations were injected into cotton pellets. The pellets were dried and then one pellet was implanted beneath the skin of each test rat. Six days later, the animals were sacrificed and the granulation tissue (granuloma) which formed in and around the implanted pellet was removed, dried and weighed. In addition, the thymi and adrenals were removed and weighed.
# thymus weight in rats = assay: Thymus inhibition testing (subcutaneous administration)
# Procedure: Several further studies were undertaken to determine the effects of selected compounds of the invention on thymi weights in rats when the drugs were systemically administered. In each of these studies, male Sprague-Dawley rats were used. […] On the fifth day (48 hours following the last treatment), the animals were sacrificed and the thymi weights were recorded. […] It is evident that the higher the inhibition of thymus activity at a given dose, the more toxic the compound is.
# [3] = chloromethyl 11β-hydroxy-17α-isopropoxycarbonyloxyandrost-4-en-3-one-17β-carboxylate = 1
# [4] = Table VII, 1 mg/kg/day s.c., three days
# [5] = Table VII, 3 mg/kg/day s.c., three days
# [6] = Table VII, 10 mg/kg/day s.c., three days
# [7] = Table VII, 30 mg/kg/day s.c., three days
# [8] = Table VIII, 10 mg/kg/day s.c., three days
# [9] = Table X, betamethasone 17-valerate = 1
smiles,measurement,setting,value
"CCOC(=O)O[C@]1(C(=O)OCCl)[C@H](C)C[C@H]2[C@@H]3CCC4=CC(=O)C=C[C@]4(C)[C@@]3(F)[C@@H](O)C[C@@]21C [chloromethyl 17α-ethoxycarbonyloxy-9α-fluoro-11β-hydroxy-16α-methylandrosta-1,4-dien-3-one-17β-carboxylate]",Body wt. gain,[1]; 1 mg/kg/day i.v.,14.1 ± 1.4 g
same,Dry granuloma wt.,[1]; 1 mg/kg/day i.v.,50.1 ± 6.9 mg
same,Dry granuloma wt. Inhibition,[1]; 1 mg/kg/day i.v.,20.1%
same,Thymus wt.,[1]; 1 mg/kg/day i.v.,373 ± 25 mg
same,Thymus wt. Decrease,[1]; 1 mg/kg/day i.v.,11.6%
same,Body wt. gain,[1]; 3 mg/kg/day i.v.,14.2 ± 1.3 g
same,Dry granuloma wt.,[1]; 3 mg/kg/day i.v.,49.3 ± 5.1 mg
same,Dry granuloma wt. Inhibition,[1]; 3 mg/kg/day i.v.,21.4%
same,Thymus wt.,[1]; 3 mg/kg/day i.v.,338 ± 20 mg
same,Thymus wt. Decrease,[1]; 3 mg/kg/day i.v.,19.9%
same,Body wt. gain,[1]; 10 mg/kg/day i.v.,0.3 ± 1.7 g
same,Dry granuloma wt.,[1]; 10 mg/kg/day i.v.,45.7 ± 4.6 mg
same,Dry granuloma wt. Inhibition,[1]; 10 mg/kg/day i.v.,27.1%
same,Thymus wt.,[1]; 10 mg/kg/day i.v.,209 ± 31 mg
same,Thymus wt. Decrease,[1]; 10 mg/kg/day i.v.,50.5%
same,Body wt. gain,[1]; 30 mg/kg/day i.v.,-18.5 ± 2.3 g
same,Dry granuloma wt.,[1]; 30 mg/kg/day i.v.,32.7 ± 3.0 mg
same,Dry granuloma wt. Inhibition,[1]; 30 mg/kg/day i.v.,47.8%
same,Thymus wt.,[1]; 30 mg/kg/day i.v.,71 ± 4 mg
same,Thymus wt. Decrease,[1]; 30 mg/kg/day i.v.,83.2%
same,Body wt. gain,[2]; 0.3 μg/pellet,32.4 ± 1.1 g
same,Granulation tissue Dry wt.,[2]; 0.3 μg/pellet,57.3 ± 5.0 mg
same,Granulation tissue Dry wt. Inhibition,[2]; 0.3 μg/pellet,29.4%
same,Granulation tissue Wet wt.,[2]; 0.3 μg/pellet,472 ± 23 mg
same,Granulation tissue Wet wt. Inhibition,[2]; 0.3 μg/pellet,16.6%
same,Thymus wt.,[2]; 0.3 μg/pellet,492 ± 26 mg
same,Body wt. gain,[2]; 1 μg/pellet,37.3 ± 1.5 g
same,Granulation tissue Dry wt.,[2]; 1 μg/pellet,36.4 ± 2.4 mg
same,Granulation tissue Dry wt. Inhibition,[2]; 1 μg/pellet,55.2%
same,Granulation tissue Wet wt.,[2]; 1 μg/pellet,388 ± 31 mg
same,Granulation tissue Wet wt. Inhibition,[2]; 1 μg/pellet,31.4%
same,Thymus wt.,[2]; 1 μg/pellet,519 ± 22 mg
same,Body wt. gain,[2]; 3 μg/pellet,34.3 ± 1.1 g
same,Granulation tissue Dry wt.,[2]; 3 μg/pellet,27.4 ± 2.9 mg
same,Granulation tissue Dry wt. Inhibition,[2]; 3 μg/pellet,66.3%
same,Granulation tissue Wet wt.,[2]; 3 μg/pellet,331 ± 11 mg
same,Granulation tissue Wet wt. Inhibition,[2]; 3 μg/pellet,41.5%
same,Thymus wt.,[2]; 3 μg/pellet,472 ± 16 mg
same,Body wt. gain,[2]; 10 μg/pellet,36.1 ± 1.1 g
same,Granulation tissue Dry wt.,[2]; 10 μg/pellet,22.1 ± 3.6 mg
same,Granulation tissue Dry wt. Inhibition,[2]; 10 μg/pellet,72.8%
same,Granulation tissue Wet wt.,[2]; 10 μg/pellet,313 ± 13 mg
same,Granulation tissue Wet wt. Inhibition,[2]; 10 μg/pellet,44.7%
same,Thymus wt.,[2]; 10 μg/pellet,521 ± 35 mg
same,Body wt. gain,[2]; 30 μg/pellet,31.3 ± 1.4 g
same,Granulation tissue Dry wt.,[2]; 30 μg/pellet,20.4 ± 2.4 mg
same,Granulation tissue Dry wt. Inhibition,[2]; 30 μg/pellet,74.9%
same,Granulation tissue Wet wt.,[2]; 30 μg/pellet,290 ± 10 mg
same,Granulation tissue Wet wt. Inhibition,[2]; 30 μg/pellet,48.8%
same,Thymus wt.,[2]; 30 μg/pellet,505 ± 26 mg
same,ED50,"[2]; Table XII, anti-inflammatory effect in cotton pellet granuloma",1.07 μg/pellet
same,Relative potency (ED40),[2]; [3],653
same,Relative potency (ED60),[2]; [3],283
same,ED40,[2]; dose causing 40% inhibition of granulation tissue weight,0.47 μg/pellet
same,ED50,[2]; dose causing 50% inhibition of granulation tissue weight,1.07 μg/pellet
same,ED60,[2]; dose causing 60% inhibition of granulation tissue weight,2.44 μg/pellet
same,Body weight gain,thymus weight in rats; [4],13.1 ± 1.0 g
same,Thymus,thymus weight in rats; [4],428 ± 20 mg
same,Thymus Inhibition,thymus weight in rats; [4],9.1%
same,Body weight gain,thymus weight in rats; [5],12.7 ± 1.4 g
same,Thymus,thymus weight in rats; [5],412 ± 20 mg
same,Thymus Inhibition,thymus weight in rats; [5],12.5%
same,Body weight gain,thymus weight in rats; [6],9.7 ± 1.3 g
same,Thymus,thymus weight in rats; [6],405 ± 21 mg
same,Thymus Inhibition,thymus weight in rats; [6],14.0%
same,Body weight gain,thymus weight in rats; [7],4.4 ± 0.7 g
same,Thymus,thymus weight in rats; [7],292 ± 15 mg
same,Thymus Inhibition,thymus weight in rats; [7],38.0%
same,Body weight gain,thymus weight in rats; [8],14.2 ± 1.9 g
same,Thymus wt.,thymus weight in rats; [8],533 ± 31 mg
same,Thymus wt. Inhibition,thymus weight in rats; [8],3.1%
same,Relative Potency (TED40),thymus weight in rats; [9],0.0058
same,Relative Potency (TED50),thymus weight in rats; [9],<0.011
same,TED40,"thymus weight in rats; Table X, dose required to achieve 40% inhibition of thymi weight, subcutaneous",51.5 mg
same,TED50,"thymus weight in rats; Table X, dose required to achieve 50% inhibition of thymi weight, subcutaneous",<51.5^a mg
same,Relative Potency (TED40),"thymus weight in rats; Table XII, hydrocortisone 17-butyrate = 1",1/40
same,TED40,"thymus weight in rats; Table XII, thymus inhibition effect, subcutaneously",51.5 mg/kg
